Source: article PMC10949812, “Unveiling CXCR2 as a promising therapeutic target in renal cell carcinoma: exploring the immunotherapeutic paradigm shift through its inhibition by RCT001” (Journal of Experimental & Clinical Cancer Research : CR, 2024)

Experiments:
CXCR2 [1] = biological target: T1, CXCR2 (Homo sapiens, UniProt P25025); test: fluorescent conformational probe (λmax shift) on recombinant reconstituted CXCR2, dose response and kinetics; type: binding
T1 construct: recombinant CXCR2 reconstituted in detergent buffer containing lipids
T1 sequence (P25025 1-360): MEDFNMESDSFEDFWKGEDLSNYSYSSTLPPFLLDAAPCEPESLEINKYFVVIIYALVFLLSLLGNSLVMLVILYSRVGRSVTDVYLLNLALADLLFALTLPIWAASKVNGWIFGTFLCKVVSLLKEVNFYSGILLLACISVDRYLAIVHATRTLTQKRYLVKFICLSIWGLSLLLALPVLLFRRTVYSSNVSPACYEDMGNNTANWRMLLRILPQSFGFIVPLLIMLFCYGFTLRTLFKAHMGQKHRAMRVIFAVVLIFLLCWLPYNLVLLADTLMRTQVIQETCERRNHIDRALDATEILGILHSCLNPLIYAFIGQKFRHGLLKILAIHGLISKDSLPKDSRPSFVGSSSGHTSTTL

CXCR2 [2] = biological target: T1, CXCR2; test: fluorescent conformational probe (λmax shift) kinetics on recombinant CXCR2, SX-682 […] after CXCL8 […]; type: biochemical

SMILES | EC50 (CXCR2 [1]) [nM] | fluorescent conformational probe (λmax shift) kinetics on recombinant CXCR2, SX- (CXCR2 [2])
O=C(Nc1cc(Cl)cc(Cl)c1)Nc1nc2ccc([N+](=O)[O-])cc2s1 [RCT001, 1-(3,5-dichlorophenyl)-3-(6-nitrobenzo[d]thiazol-2-yl) urea] | 42.7 | 
O=C(Nc1ccc(F)cc1)c1cnc(SCc2cc(OC(F)(F)F)ccc2B(O)O)nc1 [SX-682] |  | Unlike RCT001, SX-682 inhibited CXCL8-induced pocket opening of CXCR2 (Fig. S3c), firmly establishing it as a standard CXCR2 antagonist
